Results published in ChEMBL document CHEMBL1201862, “PubChem BioAssay data set” (2004).
The source made the active and inactive calls.

Key:
[1] = system: HEK293; test: cells; assay type: functional, cell-based; details: Homo sapiens
[2] = system: HEK293; test: cells; assay type: functional, cell-based; details: Homo sapiens; remark: listed apart in the source
[3] = target: Nucleotide-binding oligomerization domain-containing protein 2 (Homo sapiens, UniProt Q9HC29); test: inhibition of NOD2-driven NF-kB reporter – cell-based, luminescence, uHTS, HEK293 (AID 1566); assay type: functional
Sequence of Nucleotide-binding oligomerization domain-containing protein 2 (Q9HC29 whole entry, the tested form may be a part): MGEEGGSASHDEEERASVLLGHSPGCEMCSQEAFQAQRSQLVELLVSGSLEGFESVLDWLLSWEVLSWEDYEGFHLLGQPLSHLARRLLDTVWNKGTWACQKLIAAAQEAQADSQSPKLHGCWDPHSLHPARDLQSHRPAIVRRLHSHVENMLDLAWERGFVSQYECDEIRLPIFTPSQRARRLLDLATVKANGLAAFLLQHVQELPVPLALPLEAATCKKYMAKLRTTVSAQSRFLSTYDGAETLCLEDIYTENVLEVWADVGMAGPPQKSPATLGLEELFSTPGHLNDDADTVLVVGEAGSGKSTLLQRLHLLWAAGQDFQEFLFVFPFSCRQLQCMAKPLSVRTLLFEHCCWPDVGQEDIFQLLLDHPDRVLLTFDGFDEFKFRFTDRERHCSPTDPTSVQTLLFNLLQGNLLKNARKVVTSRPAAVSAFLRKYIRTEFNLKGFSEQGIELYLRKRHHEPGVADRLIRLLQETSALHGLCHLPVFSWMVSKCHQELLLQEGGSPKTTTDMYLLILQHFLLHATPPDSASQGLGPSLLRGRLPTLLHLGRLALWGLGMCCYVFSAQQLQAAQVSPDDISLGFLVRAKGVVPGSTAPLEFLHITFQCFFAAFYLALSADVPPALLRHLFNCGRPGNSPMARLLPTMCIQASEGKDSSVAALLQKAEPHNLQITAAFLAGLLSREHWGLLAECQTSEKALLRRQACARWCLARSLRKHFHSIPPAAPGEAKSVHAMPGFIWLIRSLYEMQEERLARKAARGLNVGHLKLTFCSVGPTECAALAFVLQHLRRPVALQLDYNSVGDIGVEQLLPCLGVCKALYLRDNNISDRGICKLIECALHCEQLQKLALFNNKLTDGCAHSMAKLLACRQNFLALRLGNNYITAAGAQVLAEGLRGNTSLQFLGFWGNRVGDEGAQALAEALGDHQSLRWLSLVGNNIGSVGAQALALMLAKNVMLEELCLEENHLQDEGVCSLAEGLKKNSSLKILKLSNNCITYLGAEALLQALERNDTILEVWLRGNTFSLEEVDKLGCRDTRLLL

[4] = system: HEK293; test: cells; assay type: functional, cell-based; details: Homo sapiens; remark: listed apart in the source
[5] = system: HEK293; test: inhibition of NOD1-driven NF-kB reporter – cell-based, luminescence, uHTS, primary screen (AID 1578); assay type: functional; details: Homo sapiens
[6] = HEK-293T cell viability reduction – luminescence, B-cell screen hits, cytotoxicity control for BCR NF-kB inhibitor project, dose response (AID 489021); assay type: functional, cell-based;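 also: HEK-293T cells carrying an NF-kB luciferase reporter; cells exposed to compound for about 14 hours before viability readout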
[7] = target: T1, Microphthalmia-associated transcription factor (Homo sapiens, UniProt O75030); test: reducers of TRPM1 reporter luminescence, concentration series – cell-based, SK-MEL-5, cherry-picked, set 3, MITF inhibitor project, dose response (AID 493073); assay type: functional;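 also: SK-MEL-5 melanoma cells with luciferase driven by the MITF target TRPM1 promoter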
T1 sequence (O75030 whole entry): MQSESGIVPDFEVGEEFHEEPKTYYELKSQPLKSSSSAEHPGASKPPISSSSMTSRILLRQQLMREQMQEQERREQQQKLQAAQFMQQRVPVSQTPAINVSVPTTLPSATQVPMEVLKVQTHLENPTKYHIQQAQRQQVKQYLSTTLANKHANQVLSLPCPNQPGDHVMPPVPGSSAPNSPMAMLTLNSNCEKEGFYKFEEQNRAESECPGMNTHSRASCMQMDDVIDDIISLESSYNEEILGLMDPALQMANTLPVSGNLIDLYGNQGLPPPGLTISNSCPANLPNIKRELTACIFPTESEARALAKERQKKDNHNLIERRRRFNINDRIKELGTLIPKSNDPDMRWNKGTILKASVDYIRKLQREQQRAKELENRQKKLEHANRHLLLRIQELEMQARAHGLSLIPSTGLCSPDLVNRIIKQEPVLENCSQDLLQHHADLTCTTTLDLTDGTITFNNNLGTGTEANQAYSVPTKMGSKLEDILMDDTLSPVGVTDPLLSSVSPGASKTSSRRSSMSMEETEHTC

[8] = system: HEK293; test: NOD2 signaling inhibitors in MDP-stimulated cells, cell-based, uHTS, luminescence (AID 2001); assay type: functional; details: Homo sapiens
[9] = viability of PTEN-deleted HCT116 cells – cell-based, HCT116 PTEN knockout, dose response (AID 1047); assay type: functional;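 also: HCT116 colon tumor cells with PTEN knocked out; cells exposed to compound for 60 hours before readout; potency for loss of cell viability measured by luminescence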
[10] = viability of HCT116 lacking mutant beta-catenin – cell-based, human colon tumor, dose response (AID 1045); assay type: functional;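 also: HCT116 colon tumor cells with beta catenin knocked out; cells exposed to compound for 60 hours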
[11] = system: Vero; test: cells; assay type: functional; details: Chlorocebus sabaeus
[12] = system: Vero; test: cells; assay type: functional, cell-based; details: Chlorocebus sabaeus
[13] = target: T2, Voltage-gated N-type calcium channel alpha-1B subunit/Amyloid beta A4 precursor protein-binding family A member 1 (Homo sapiens, UniProt Q00975+Q02410); assay type: protein assay
T2 sequence (Q00975 whole entry): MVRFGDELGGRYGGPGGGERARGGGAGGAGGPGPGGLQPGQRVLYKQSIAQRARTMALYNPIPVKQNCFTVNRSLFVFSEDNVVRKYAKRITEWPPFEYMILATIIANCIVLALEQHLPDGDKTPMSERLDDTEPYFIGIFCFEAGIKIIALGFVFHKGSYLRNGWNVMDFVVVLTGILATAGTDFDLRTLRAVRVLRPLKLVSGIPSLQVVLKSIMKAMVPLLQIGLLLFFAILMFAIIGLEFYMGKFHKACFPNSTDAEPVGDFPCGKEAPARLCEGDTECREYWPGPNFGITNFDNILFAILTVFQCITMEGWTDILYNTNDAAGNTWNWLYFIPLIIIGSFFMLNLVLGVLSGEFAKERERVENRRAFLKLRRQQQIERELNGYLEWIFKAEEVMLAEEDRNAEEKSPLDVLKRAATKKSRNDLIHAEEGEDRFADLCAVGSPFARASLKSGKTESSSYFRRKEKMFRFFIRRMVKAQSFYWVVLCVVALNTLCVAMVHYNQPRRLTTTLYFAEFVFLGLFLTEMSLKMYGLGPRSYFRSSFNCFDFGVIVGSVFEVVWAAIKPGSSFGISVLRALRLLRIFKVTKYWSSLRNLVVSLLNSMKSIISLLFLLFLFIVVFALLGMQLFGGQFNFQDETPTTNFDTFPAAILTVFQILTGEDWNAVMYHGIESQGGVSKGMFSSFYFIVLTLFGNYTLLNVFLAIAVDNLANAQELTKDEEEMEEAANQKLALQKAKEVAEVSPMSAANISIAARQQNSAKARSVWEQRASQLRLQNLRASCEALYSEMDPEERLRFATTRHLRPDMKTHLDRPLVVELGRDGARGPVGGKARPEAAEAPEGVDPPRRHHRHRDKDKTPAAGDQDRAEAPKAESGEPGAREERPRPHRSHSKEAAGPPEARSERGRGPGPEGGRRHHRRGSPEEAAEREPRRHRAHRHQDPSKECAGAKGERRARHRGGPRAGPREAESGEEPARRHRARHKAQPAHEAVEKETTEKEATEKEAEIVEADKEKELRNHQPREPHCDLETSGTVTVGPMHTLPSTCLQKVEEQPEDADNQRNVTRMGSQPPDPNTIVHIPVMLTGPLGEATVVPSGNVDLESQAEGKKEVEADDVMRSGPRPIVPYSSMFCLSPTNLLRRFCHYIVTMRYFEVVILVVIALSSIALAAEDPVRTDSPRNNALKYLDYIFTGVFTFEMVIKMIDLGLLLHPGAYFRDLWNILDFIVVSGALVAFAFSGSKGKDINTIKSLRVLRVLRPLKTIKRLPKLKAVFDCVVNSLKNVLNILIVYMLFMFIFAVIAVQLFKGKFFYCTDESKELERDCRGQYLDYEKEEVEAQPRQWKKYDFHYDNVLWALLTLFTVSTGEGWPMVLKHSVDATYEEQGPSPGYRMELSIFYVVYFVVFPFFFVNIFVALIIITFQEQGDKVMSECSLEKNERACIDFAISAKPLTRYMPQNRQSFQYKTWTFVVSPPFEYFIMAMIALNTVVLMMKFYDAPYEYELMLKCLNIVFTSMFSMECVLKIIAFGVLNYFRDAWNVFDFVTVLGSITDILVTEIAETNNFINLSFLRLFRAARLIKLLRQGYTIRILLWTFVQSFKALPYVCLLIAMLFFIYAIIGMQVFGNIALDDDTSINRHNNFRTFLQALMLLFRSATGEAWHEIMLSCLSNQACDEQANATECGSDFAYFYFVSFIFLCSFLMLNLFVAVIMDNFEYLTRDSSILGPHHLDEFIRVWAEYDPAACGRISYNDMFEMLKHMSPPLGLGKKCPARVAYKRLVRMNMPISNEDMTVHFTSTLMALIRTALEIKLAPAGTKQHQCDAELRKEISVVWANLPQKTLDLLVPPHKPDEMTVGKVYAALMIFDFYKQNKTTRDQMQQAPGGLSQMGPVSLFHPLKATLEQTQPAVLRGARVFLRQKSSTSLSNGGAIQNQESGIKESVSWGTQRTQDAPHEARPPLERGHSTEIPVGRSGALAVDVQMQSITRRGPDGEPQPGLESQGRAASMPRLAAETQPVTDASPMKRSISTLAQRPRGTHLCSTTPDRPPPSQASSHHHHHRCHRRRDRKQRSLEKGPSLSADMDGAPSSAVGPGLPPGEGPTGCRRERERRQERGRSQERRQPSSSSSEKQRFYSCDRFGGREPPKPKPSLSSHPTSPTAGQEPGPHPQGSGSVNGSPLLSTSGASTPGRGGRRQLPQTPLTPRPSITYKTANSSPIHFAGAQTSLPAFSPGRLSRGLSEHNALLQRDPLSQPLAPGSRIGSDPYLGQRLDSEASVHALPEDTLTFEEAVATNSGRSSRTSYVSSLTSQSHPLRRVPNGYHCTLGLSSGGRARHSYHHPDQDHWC
T2 sequence (Q02410 whole entry): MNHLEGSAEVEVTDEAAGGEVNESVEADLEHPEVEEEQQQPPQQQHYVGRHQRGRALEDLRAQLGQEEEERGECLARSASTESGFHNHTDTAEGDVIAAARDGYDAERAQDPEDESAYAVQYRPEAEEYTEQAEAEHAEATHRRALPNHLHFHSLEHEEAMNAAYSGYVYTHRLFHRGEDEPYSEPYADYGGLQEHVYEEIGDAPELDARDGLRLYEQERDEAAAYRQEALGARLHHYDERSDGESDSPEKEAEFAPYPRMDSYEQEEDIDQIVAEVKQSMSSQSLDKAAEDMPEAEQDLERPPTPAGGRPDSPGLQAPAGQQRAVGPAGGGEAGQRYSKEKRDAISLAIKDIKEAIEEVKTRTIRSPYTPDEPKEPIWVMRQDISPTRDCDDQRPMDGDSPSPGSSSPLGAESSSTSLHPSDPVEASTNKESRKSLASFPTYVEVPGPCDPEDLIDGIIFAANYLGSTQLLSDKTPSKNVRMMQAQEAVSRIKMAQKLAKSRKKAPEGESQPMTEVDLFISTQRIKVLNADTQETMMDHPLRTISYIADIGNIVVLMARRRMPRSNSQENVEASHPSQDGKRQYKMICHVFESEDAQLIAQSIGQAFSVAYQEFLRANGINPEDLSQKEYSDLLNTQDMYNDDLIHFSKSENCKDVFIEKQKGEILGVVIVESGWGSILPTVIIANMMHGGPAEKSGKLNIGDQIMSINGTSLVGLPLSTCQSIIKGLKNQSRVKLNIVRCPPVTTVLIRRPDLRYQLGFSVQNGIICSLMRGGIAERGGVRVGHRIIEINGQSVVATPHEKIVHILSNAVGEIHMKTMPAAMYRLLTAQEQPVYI

[14] = target: T2, Voltage-gated N-type calcium channel alpha-1B subunit/Amyloid beta A4 precursor protein-binding family A member 1; assay type: protein assay; remark: listed apart in the source
[15] = target: Cytochrome P450 3A4 (Homo sapiens, UniProt P08684);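 also: CYP3A4 tested as one member of a cytochrome P450 panel screen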
Sequence of Cytochrome P450 3A4 (P08684 whole entry): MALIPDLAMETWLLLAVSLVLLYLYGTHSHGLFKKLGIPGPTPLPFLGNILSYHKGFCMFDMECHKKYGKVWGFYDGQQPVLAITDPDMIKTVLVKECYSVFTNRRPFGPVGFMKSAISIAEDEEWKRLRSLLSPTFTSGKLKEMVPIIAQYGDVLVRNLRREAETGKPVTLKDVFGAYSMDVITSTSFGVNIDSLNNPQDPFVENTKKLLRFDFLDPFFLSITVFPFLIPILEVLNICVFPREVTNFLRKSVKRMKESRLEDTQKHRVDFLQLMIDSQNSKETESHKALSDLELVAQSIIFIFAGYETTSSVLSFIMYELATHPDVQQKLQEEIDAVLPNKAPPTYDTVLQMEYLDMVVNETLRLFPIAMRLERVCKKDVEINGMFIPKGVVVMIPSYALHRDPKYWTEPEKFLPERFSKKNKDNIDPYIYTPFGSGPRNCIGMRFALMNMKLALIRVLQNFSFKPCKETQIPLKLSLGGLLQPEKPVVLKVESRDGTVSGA

[16] = target: Cytochrome P450 2D6 (Homo sapiens, UniProt P10635);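 also: CYP2D6 member of a cytochrome P450 panel assay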
[17] = system: Streptococcus sp. 'group A'; test: Streptococcus pyogenes SK(-)GAS viability under kanamycin – luminescence, BacTiterGlo, confirmation, counter-screen for streptokinase expression inhibitor project, dose response (AID 1900); assay type: functional, organism-based
[18] = MIN6 cell viability loss – mouse insulinoma, cytotoxicity control, dose response (AID 2122); assay type: functional;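 also: confirmatory high-throughput counterscreen run to flag cytotoxic compounds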
[19] = NIH3T3 cell viability loss – ATP luminescence, mouse fibroblasts, counter-screen, dose response (AID 2010); assay type: functional, cell-based;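 also: cells exposed to compound for about 90 hours before reading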
[20] = Luminescence Cell-Based Dose Retest to Confirm Inhibitors of Cancer Stem Cells. [Related pubchem assays (depositor defined):AID2717, AID2721]; assay type: functional; details: Homo sapiens
[21] = cells; assay type: functional, cell-based
[22] = Trypanosoma cruzi growth suppression in host cells – NIH3T3 host cells, beta-gal luminescence, confirmation (AID 2044); assay type: functional, cell-based;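 also: intracellular parasites grown in NIH/3T3 mouse fibroblasts as host cells; luminescent beta-galactosidase reporter signal from transgenic T. cruzi replicating inside host cells; inhibitors lower the luminescence signal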
[23] = decrease of insulin promoter-GFP reporter – imaging, high-content screening, mouse beta cells (AID 1628); assay type: functional; details: MIN6
[24] = cells; assay type: functional, cell-based; remark: listed apart in the source
[25] = system: Streptococcus; test: GAS UMAA2166 growth inhibition – luminescence, BacTiterGlo, counter-screen for streptokinase expression inhibitor project, dose response (AID 1915); assay type: functional, organism-based;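 also: potency for reduction of bacterial viability or growth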
[26] = system: INS1; test: INS-1E survival protection against cytokine death – cell-based, luminescence, retest, dose response (AID 449756); assay type: functional; details: Rattus norvegicus;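 also: cell death triggered by IL-1 beta plus TNF-alpha plus IFN-gamma mixture; protective hits raise ATP signal compared with cytokine alone wells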

COc1ccc(/C=C2\SC(=S)N(CCCC(=O)NNC(=O)c3ccccc3O)C2=O)cc1
IC50 [1]: > 20 µM (inactive)
IC50 [2]: 5.39 µM (active)
EC50 [3]: > 20 µM (inactive)
IC50 [4]: > 20 µM (inactive)
EC50 [5]: 8.29 µM (active)
IC50 [6]: > 80 µM (inactive)
AC50 [7]: 1.38 µM (active)
IC50 [8]: 5.62 µM (active)

Cc1ccc(NC(=O)c2cc(=O)c3ccccc3o2)cc1S(=O)(=O)N1CCCCC1
IC50 [1]: > 20 µM (inactive)
EC50 [3]: > 20 µM (inactive)
IC50 [4]: > 20 µM (inactive)
EC50 [5]: 8.74 µM (active)
IC50 [8]: 9.78 µM (active)

CC(C)c1ccc(/C=C2\SC(=S)N(CCC(=O)N3CCCCC3CCO)C2=O)cc1 (stereo not given)
IC50 [6]: 72.4 µM (inactive)
AC50 [7]: 7.43 µM (active)

CC(C)N1C/C(=C/c2ccsc2)C(=O)/C(=C/c2ccsc2)C1
EC50 [9]: 1.39 µM (active)
EC50 [10]: 1.34 µM (active)
CC50 [11]: 5.33 µM (active)
IC50 [12]: > 25 µM (active)

C=CCn1c(SCC(=O)c2cccs2)nc2sc(C)c(C)c2c1=O
IC50 [12]: 24.8 µM (active)

Cc1ccc(-c2nn(-c3ccccc3)cc2/C=C/C(=O)O)o1
IC50 [13]: 17.6 µM (active)
IC50 [14]: 30.9 µM (active)

Clc1ccccc1-c1cc(NCc2ccccc2)ncn1
AC50 [15]: inconclusive
AC50 [16]: 20 µM (inconclusive)

CS(=O)(=O)Nc1ccc(S(=O)(=O)N2CCOCC2)cc1
AC50 [15]: inconclusive

O=C(N/N=C/c1cc(Br)ccc1O)C(=O)Nc1ccccc1OC(F)(F)C(F)F
EC50 [17]: 866 nM (active)
IC50 [18]: 2.22 µM (active)
EC50 [19]: 8.61 µM (active)
AC50 [20]: 1.62 µM (active)
EC50 [21]: > 350 µM (not active)
EC50 [22]: 572 nM (active)
IC50 [23]: 1.93 µM (active)
EC50 [24]: 10.9 µM (active)
EC50 [25]: 1.82 µM (active)
AC50 [26]: 2.17 µM (active)
